Test results reported in article PMC10126473 (Frontiers in Pharmacology, 2023).

What was measured:
[1] = Incubation in liver cytosolic fractions; type: in vitro ADME; conditions: mouse, hamster, human, read-out: in vitro metabolic half-life (t1/2)
Experimental: The in vitro metabolic stability of PDN was determined in the plasma and liver fractions of three species. […] Based on the formation of Nc in plasma, about 51%, 16%, and 10% of depleted PDN were converted to Nc in mouse, hamster, and human plasma, respectively. PDN was also metabolized in the liver microsomes. However, due to the fast metabolism of formed Nc in liver microsomes (sequential metabolism), only a trace amount of Nc was detected after incubation of PDN. Therefore, the metabolism kinetics of PDN was investigated to obtain the Vmax, in vitro, app and Km values of PDN depletion (Table 3).

[2] = Mouse PK and tissue distribution study (non-compartmental analysis); conditions: male, C57BL/6, mouse, in vivo; for Cmax: Cmax Obs
Experimental: The in-life study (Animal Study Protocol Number: NIH ORS-51) was conducted at the NIH Animal Facility by the Division of Veterinary Resources (DVR, Bethesda, MD). In this study, 25–35 g male C57BL/6 mice (Charles River Laboratories, Frederick, MD) were used. For the IV groups, 66 mice (33 mice per dosing group, 3 mice per timepoint) were used for a single bolus IV dose of 3 or 10 mg/kg of PDN via tail vein injection. […] The IV and PO doses were selected to obtain a complete concentration profile in plasma and tissues, based on a preliminary study. Animals were not fasted in this study. […] All dosing solutions were freshly prepared on the day of dosing. At designated time points, blood samples were collected, and mice were euthanized with CO2 in accordance with NIH ARAC Guidelines after blood collection. The death was ensured by cervical dislocation or transthoracic puncture. Lung, liver, adipose, brain, heart, small intestine, kidney, skeletal muscle, and spleen samples were obtained from mice. […] Tissue samples were rinsed with cold saline, dried on filtrate paper, weighed, and snap frozen by placing into dry ice after collection. All samples were stored at −80°C until the analysis. All blood samples were collected in K2EDTA tubes and centrifuged at 3000 g for 10 min at 4°C to obtain plasma. Plasma samples were transferred to tubes preloaded with NaF (final concentration at 5 mM in 200 µL plasma) and stored at −80°C until analysis.
For fat tissue, an additional 3-fold volume of acetonitrile was added to the water homogenate and was vortexed in a shaker for another 30 min.
A 10 μ aliquot of samples, blank controls (blank plasma or tissue homogenates), quality controls (QC), and standards were added into 200 μ acetonitrile solution with 100 ng/mL tolbutamide (internal standard, IS). All samples were then thoroughly shaken for 5 min to precipitate proteins. The samples were centrifuged at 3000 rpm and 4°C for 30 min. The supernatant was injected for UPLC-MS/MS analysis.
The mobile phase consisted of 0.1% formic acid in water (A) and 0.1% formic acid in acetonitrile (B), the flow rate was 600 μL/min. […] All analyses were carried out using a Waters Acquity I-Class UPLC interfaced with a Waters Xevo TQ-S mass spectrometer. The mass spectrometer multiple reaction monitoring (MRM) experiment was operated with an ESI source at negative mode with spray voltage of 1 kV, and temperature of 600°C. Both Q1 and Q3 were set at unit resolution. […] The correlation coefficients of the calibration curves were all greater than 0.99. […] The linear range, precision and accuracy of QCs in various tissues and plasma are shown in Supplementary Table S1 and Supplementary Table S2.
The area under the concentration vs. time curve (AUC) was calculated using the linear trapezoidal method. The terminal rate constant (λ) was obtained from the slope of at least three data points of the apparent terminal phase of the log linear concentration vs. time curve. AUC0–∞ was estimated as the sum of the AUC0–t (where t is the time of the last measurable concentration) and Ct/λ. […] Bioavailability (F) was calculated using ratios of dose-normalized AUC of PO and IV administration.

O=C(Nc1ccc([N+](=O)[O-])cc1Cl)c1cc(Cl)ccc1OC(=O)N1CCNCC1 [PDN]
half-life [1]: > 2 h
Kp [2]: 8 to 44
AUC(0-inf) ([2]; iv, 3 mg/kg): 1190 ng·h/mL
clearance ([2]; iv, 3 mg/kg, CLp Obs, mice, IV 3 mg/kg PDN, plasma): 1.05 mL/min
Vd ([2]; iv, 3 mg/kg, Vdss Obs, mice, IV 3 mg/kg PDN, plasma): 0.28 L
half-life ([2]; iv, 3 mg/kg, t1/2 Obs, mice, IV 3 mg/kg PDN, adipose): 2.78 h
half-life ([2]; iv, 3 mg/kg, t1/2 Obs, mice, IV 3 mg/kg PDN, brain): 2.23 h
half-life ([2]; iv, 3 mg/kg, t1/2 Obs, mice, IV 3 mg/kg PDN, heart): 1.71 h
half-life ([2]; iv, 3 mg/kg, t1/2 Obs, mice, IV 3 mg/kg PDN, intestine): 2.69 h
half-life ([2]; iv, 3 mg/kg, t1/2 Obs, mice, IV 3 mg/kg PDN, kidney): 3.1 h
half-life ([2]; iv, 3 mg/kg, t1/2 Obs, mice, IV 3 mg/kg PDN, lung): 3.09 h
half-life ([2]; iv, 3 mg/kg, t1/2 Obs, mice, IV 3 mg/kg PDN, muscle): 1.91 h
half-life ([2]; iv, 3 mg/kg, t1/2 Obs, mice, IV 3 mg/kg PDN, plasma): 3.07 h
half-life ([2]; iv, 3 mg/kg, t1/2 Obs, mice, IV 3 mg/kg PDN, spleen): 3.44 h
AUC(0-inf) ([2]; iv, 10 mg/kg): 4100 ng·h/mL
clearance ([2]; iv, 10 mg/kg, CLp Obs, mice, IV 10 mg/kg PDN, plasma): 1.02 mL/min
Vd ([2]; iv, 10 mg/kg, Vdss Obs, mice, IV 10 mg/kg PDN, plasma): 0.31 L
half-life ([2]; iv, 10 mg/kg, t1/2 Obs, mice, IV 10 mg/kg PDN, brain): 3.39 h
half-life ([2]; iv, 10 mg/kg, t1/2 Obs, mice, IV 10 mg/kg PDN, heart): 2.86 h
half-life ([2]; iv, 10 mg/kg, t1/2 Obs, mice, IV 10 mg/kg PDN, intestine): 3.78 h
half-life ([2]; iv, 10 mg/kg, t1/2 Obs, mice, IV 10 mg/kg PDN, kidney): 4.78 h
half-life ([2]; iv, 10 mg/kg, t1/2 Obs, mice, IV 10 mg/kg PDN, liver): 3.6 h
half-life ([2]; iv, 10 mg/kg, t1/2 Obs, mice, IV 10 mg/kg PDN, lung): 3.51 h
half-life ([2]; iv, 10 mg/kg, t1/2 Obs, mice, IV 10 mg/kg PDN, muscle): 4.65 h
half-life ([2]; iv, 10 mg/kg, t1/2 Obs, mice, IV 10 mg/kg PDN, plasma): 3.52 h
half-life ([2]; iv, 10 mg/kg, t1/2 Obs, mice, IV 10 mg/kg PDN, spleen): 3.24 h
half-life ([2]; iv, 10 mg/kg, t1/2 in all other tissues, mice, IV 3 and 10 mg/kg PDN): 1.7 to 4.8 h
half-life ([2]; iv, 10 mg/kg, terminal t1/2 in plasma, mice, IV 3 and 10 mg/kg PDN): 3.1 to 3.5 h
clearance ([2]; iv, 10 mg/kg, total plasma clearance (CLp), mice, IV 3 and 10 mg/kg PDN): 1.02 to 1.05 mL/min
Vd ([2]; iv, 10 mg/kg, volume of distribution at steady-state (Vdss), mice, IV 3 and 10 mg/kg PDN): 0.28 to 0.31 L
AUC(0-inf) ([2]; po, 10 mg/kg): 3520 ng·h/mL
CL/F ([2]; po, 10 mg/kg): 1.18 mL/min
Vd/F ([2]; po, 10 mg/kg): 0.33 L
Cmax ([2]; po, 10 mg/kg, mice, PO 10 mg/kg PDN, adipose): 547 ng/g
Cmax ([2]; po, 10 mg/kg, mice, PO 10 mg/kg PDN, brain): 715 ng/g
Cmax ([2]; po, 10 mg/kg, mice, PO 10 mg/kg PDN, heart): 3040 ng/g
Cmax ([2]; po, 10 mg/kg, mice, PO 10 mg/kg PDN, intestine): 15400 ng/g
Cmax ([2]; po, 10 mg/kg, mice, PO 10 mg/kg PDN, kidney): 5860 ng/g
Cmax ([2]; po, 10 mg/kg, mice, PO 10 mg/kg PDN, liver): 240 ng/g
Cmax ([2]; po, 10 mg/kg, mice, PO 10 mg/kg PDN, lung): 22600 ng/g
Cmax ([2]; po, 10 mg/kg, mice, PO 10 mg/kg PDN, muscle): 1120 ng/g
Cmax ([2]; po, 10 mg/kg, mice, PO 10 mg/kg PDN, plasma): 606 ng/mL
Cmax ([2]; po, 10 mg/kg, mice, PO 10 mg/kg PDN, spleen): 8080 ng/g
bioavailability ([2]; po, 10 mg/kg, F (bioavailability) Obs, mice, PO 10 mg/kg PDN): 85.6%
Tmax ([2]; po, 10 mg/kg, Tmax Obs, mice, PO 10 mg/kg PDN, adipose): 1.5 h
